# Laboratory results published in patent US20260234144A1 (TAY THERAPEUTICS LIMITED, priority 2023, published 2026).
# Test system: R223X stop codon in the mutated luciferase gene, ADXC8 luciferase reporter cell line
# Assay: cells
# Type: cell-based
# Conditions: for Emax / EC (100% of 200 uM G418 response): 24 h; for Emax: read-out: Fold Over Control, maximum fold response relative to 200 μM G418; for EC (100% of 200 uM G418 response): read-out: pC100%, negative logarithm of the concentration giving the same response as 200 μM G418; for pC100% response: assayed at a concentration of 300 μM, C100% = concentration giving the same response as 200 μM G418; for pC100%: negative logarithm of the concentration giving the same response as 200 μM G418
# Protocol: The read-through activity of compounds was assessed using the ADXC8 luciferase reporter cell line (generated as described in McElroy et al. PLoS Biology (2013), 11, e1001593). […] The amount of luciferase is measured by adding a lysis buffer containing luciferin substrate and detecting luminescence using the following protocol:
# ADXC8 cells in assay media (DMEM+10% FBS) were seeded into 96-well tissue culture treated white plates (Greiner) to a density of 13,000 cells per well and incubated for 24 hours at 37° C. in an atmosphere of 5% CO2. […] Plates were incubated for a further 24 hours at 37° C. in an atmosphere of 5% CO2. Cells treated with 200 μM G418 (with 1% DMSO) were used as a positive control.
# Cell viability and firefly luciferase activity were measured in the same assay wells. CellTiter-Fluor™ reagent was prepared as per manufacturer's instructions (Promega E7120) and 20 μl of 5× CellTiter-Fluor™ reagent was added to all wells, briefly mixed by orbital shaking (300-500 rpm for −30 seconds) and the plates incubated for 30-45 minutes at 37° C. in an atmosphere of 5% C02. Cell viability was measured by monitoring fluorescence on a CLARIOstar® plate reader (BMG Labtech). Cells containing 1% DMSO were used as a positive control and cells with 400 μM Doxorubicin were used as negative control to define 100 and 0% respectively. ONE-Glo™ luciferase assay buffer (Promega E7120) was prepared according to manufacturer's instructions and 100 μl of luciferase reagent was added to each well and the plate incubated at RT for 3 mins before measuring the luminescence on the CLARIOstar® plate reader (BMG Labtech). Cells treated with 200 μM G418 (with 1% DMSO) were used as a positive control and arbitrarily assigned a value of 100%. Cells treated with 1% DMSO were used as the negative control to define 0% response.
# Concentration effect curves were analysed using non-linear regression using the CDD Vault from Collaborative Drug Discovery (Burlingame, CA). […] The bottom and top of the curves were constrained to 0 and the maximum measured response respectively. From the fitted curves, the software derived C100% values (the concentration giving the same response as 200 μM G418) for each compound. The negative logarithm of C100% is reported as pC100% (Table 1). In addition to pC100% values, the maximum fold response relative to 200 μM G418 (Fold over Control) was also captured (Table 1). A pC100% categorisation of ‘-’ in Table 1 represents examples in which a pC100% response was not reached when assayed at a concentration of 100 μM. A pC100% categorisation of ‘*’ in Table 1 represents examples in which a pC100% response was not reached when assayed at a concentration of 30 μM.
SMILES,"Emax (ADXC8 cells, 24 hours) [%]","EC (100% of 200 uM G418 response) (ADXC8 cells, 24 hours) [µM]",pC100% response,"Fold Over Control (maximum fold response relative to 200 μM G418, ADXC8 cells, 24 hours)","pC100% (ADXC8 cells, 24 hours)"
Cc1cc(C)c2c(N)nc(NC3(CO)CCNCC3)nc2n1 [Example 207],0 to 100,> 31.6,,,
CN1CCC(Nc2nc(N)c3ccc(-c4cccc(N)c4)nc3n2)CC1 [Example 93],100 to 3000,10 to 100,,,
Cc1cc(C)c2c(N)nc(NC3CCN(Cc4cocn4)CC3)nc2n1 [Example 472],100 to 3000,1 to 10,,,
CNc1nc(N[C@@H]2CCCNCC2)nc2nc(C)cc(C)c12 [Example 402],,1 to 10,,,
Cc1cc(C)c2c(N)nc(NC3CCN(Cc4nccs4)CC3)nc2n1 [Example 463],100 to 3000,1 to 10,,,
Cc1cc(C)c2c(N)nc(NC3C[C@H]4CCC[C@@H](C3)N4C)nc2n1 (some centres unmarked) [Example 211],100 to 3000,1 to 10,,,
"Cc1cc(C)c2c(N)nc(NCCN3CC4(COC4)C3)nc2n1 [Example 30, N^2-(2-(2-oxa-6-azaspiro[3.3]heptan-6-yl)ethyl)-5,7-dimethylpyrido[2,3-d]pyrimidine-2,4-diamine]",100 to 3000,10 to 100,,,
"CN1CCC(Nc2nc(N(C)C)c3cccnc3n2)CC1 [Example 40, N^4,N^4-dimethyl-N^2-(1-methylpiperidin-4-yl)pyrido[2,3-d]pyrimidine-2,4-diamine]",100 to 3000,10 to 100,,,
Cc1cc(C)c2c(N)nc(NC3CCN(Cc4ccc(C#N)c(F)c4)CC3)nc2n1 [Example 570],100 to 3000,0.1 to 1,,,
Cc1cc(C)c2c(N)nc(NCCCN3CC(F)(F)C3)nc2n1 [Example 195],0 to 100,> 31.6,,,
"Cc1ccc2c(N)nc(NC3CCN(C)CC3)nc2n1 [Example 3, 7-methyl-N^2-(1-methylpiperidin-4-yl)pyrido[2,3-d]pyrimidine-2,4-diamine]",,1 to 10,,,
CNc1nc(N[C@H]2C[C@@H](C)N(C)C2)nc2nc(C)cc(C)c12 [Example 371],100 to 3000,10 to 100,,,
Cc1cc(C)c2c(NCCN3CCOCC3)nc(NC3CCN(C)CC3)nc2n1 [Example 357],100 to 3000,1 to 10,,,
"Cc1cc(C)c2c(N)cc(N[C@@H]3CCNC3)nc2n1 [Example 255, (R)-5,7-dimethyl-N^2-(pyrrolidin-3-yl)-1,8-naphthyridine-2,4-diamine]",,0.1 to 1,,,
Cc1cc(C)c2c(N)nc(NC3CCN(Cc4cccc(C(=O)N(C)C)c4)CC3)nc2n1 [Example 462],0 to 100,> 31.6,,,
COc1ccc(CCN2CCC(Nc3nc(N)c4c(C)cc(C)nc4n3)CC2)cc1 [Example 201],100 to 3000,1 to 10,,,
Cc1cc(C)c2c(N)nc(NC[C@@H]3CNCCO3)nc2n1 [Example 176],100 to 3000,1 to 10,,,
"CNc1nc(N[C@H]2CN(C)C[C@@H]2O)nc2nc(C)c(C)c(C)c12 [Example 520, (3S,4S)-1-methyl-4-((5,6,7-trimethyl-4-(methylamino)pyrido[2,3-d]pyrimidin-2-yl)amino)pyrrolidin-3-ol]",100 to 3000,0.1 to 1,,,
CN1CCC(Nc2nc(N)c3cc(C#N)cnc3n2)CC1 [Example 277],0 to 100,> 31.6,,,
"CC(O)c1cnc2nc(NC3CCN(C)CC3)nc(N)c2c1 (centres unmarked) [Example 126, 1-{4-amino-2-[(1-methylpiperidin-4-yl)amino]pyrido[2,3-d]pyrimidin-6-yl}ethanol]",0 to 100,> 100,,,
Cc1cc(C)c2c(N)nc(NC3CC(C)(C)N(C)C(C)(C)C3)nc2n1 [Example 171],100 to 3000,10 to 100,,,
CN1CCC(Nc2nc(N)c3ccc(-c4cncnc4)nc3n2)CC1 [Example 98],0 to 100,> 100,,,
CN1CCC(Nc2nc(N)c3ccc(-c4ccn(C)n4)nc3n2)CC1 [Example 79],0 to 100,> 100,,,
"Nc1nc(N)c2nc(-c3ccccc3)c(N)nc2n1 [triamterene, reference compound]",0 to 100,> 100,not reached,,

SMILES,"Emax (ADXC8 cells, 24 hours) [%]","EC (100% of 200 uM G418 response) (ADXC8 cells, 24 hours) [µM]",pC100% response,"Fold Over Control (maximum fold response relative to 200 μM G418, ADXC8 cells, 24 hours)","pC100% (ADXC8 cells, 24 hours)"
Cc1nc2nc(NC3CCN(Cc4ccc(C#N)cc4F)CC3)nc(N)c2c2c1CCC2 [Example 527],100 to 3000,0.1 to 1,,,
"CNc1nc(NC2C3CNC2C3)nc2nc(C)cc(C)c12 (single isomer, unassigned) [Example 448]",,,,# (Fold over Ctrl ≥ 0 ≤ 1),* (pC100 ≤ 4.5)
CCN1C[C@@H](F)[C@@H](Nc2nc(NC)c3c(C)cc(C)nc3n2)C1 [Example 628],,1 to 10,,,
Cc1cc(C)c2c(N)nc(N[C@H]3CNC[C@H]3C)nc2n1 [Example 351],,1 to 10,,,
CN1CCC(Nc2nc(N)c3ccc(-c4cccc(Cl)c4)nc3n2)CC1 [Example 91],,1 to 10,,,
CNc1nc(N[C@H]2CNC[C@@H]2F)nc2nc(C)c3c(c12)CCC3 [Example 346],100 to 3000,0.1 to 1,,,
Cc1cc(C)c2c(NCC(N)=O)nc(NC3CCN(C)CC3)nc2n1 [Example 314],0 to 100,> 31.6,,,
"CN1CCC(Nc2nc(N)c3cccnc3n2)CC1 [Example 1, N^2-(1-methylpiperidin-4-yl)pyrido[2,3-d]pyrimidine-2,4-diamine]",100 to 3000,10 to 100,,,
COc1cccc(-c2ccc3c(N)nc(NC4CCN(C)CC4)nc3n2)c1 [Example 100],100 to 3000,1 to 10,,,
CNc1nc(N[C@H]2CN(C)C[C@H]2F)nc2nc(C)cc(C)c12 [Example 340],100 to 3000,1 to 10,,,
Cc1cc(C)c2c(N)nc(NCCCN3CC4(CCCO4)C3)nc2n1 [Example 192],0 to 100,> 31.6,,,
Cc1cc(C)c2c(N)nc(NC3CC34CCNCC4)nc2n1 (centres unmarked) [Example 640],0 to 100,> 31.6,,,
"Nc1nc(N)c2cccnc2n1 [pyrido[2,3-d]pyrimidine-2,4-diamine, reference compound]",0 to 100,> 100,not reached,,
Cc1cc(C)c2c(N)nc(NC3CCCN(C)CC3)nc2n1 (centres unmarked) [Example 179],100 to 3000,1 to 10,,,
Cc1cc(C)c2c(N)nc(NC3CCN(Cc4cccc(C(N)=O)c4)CC3)nc2n1 [Example 484],100 to 3000,10 to 100,,,
Cc1cc(C)c2c(N)nc(NCCN3CC(F)(F)C3)nc2n1 [Example 169],0 to 100,> 31.6,,,
Cc1cc(C)c2c(NCC(F)(F)F)nc(N[C@@H]3CCN(C)C3)nc2n1 [Example 389],100 to 3000,10 to 100,,,
Cc1cc(C)c2c(N)nc(N[C@H]3CCNC3)nc2n1 [Example 292],100 to 3000,1 to 10,,,
"CNc1nc(NC2CNCC2C(F)F)nc2nc(C)cc(C)c12 (single isomer, unassigned) [Example 430]",,,,,++ (pC100% > 5.0 ≤ 6.0)
"Cc1cc(C)c2c(N)nc(N[C@H]3CN(C)C[C@@H]3O)nc2n1 [Example 226, (3S,4S)-4-((4-amino-5,7-dimethylpyrido[2,3-d]pyrimidin-2-yl)amino)-1-methylpyrrolidin-3-ol]",100 to 3000,0.1 to 1,,,
Cc1c2c(nc3nc(NC4CCN(Cc5ccc(C(=O)O)cc5)CC4)nc(N)c13)CCC2 [Example 673],100 to 3000,1 to 10,,,
Cc1cc(C)c2c(NCc3ccncc3)nc(NC3CCN(C)CC3)nc2n1 [Example 319],0 to 100,> 31.6,,,
"CNc1nc(NC2CC3CCC2N3)nc2nc(C)cc(C)c12 (centres unmarked) [Example 517, N^2-(-7-azabicyclo[2.2.1]heptan-2-yl)-N^4,5,7-trimethylpyrido[2,3-d]pyrimidine-2,4-diamine]",100 to 3000,,,,++ (pC100% > 5.0 ≤ 6.0)
